Assay results as given in patent US10722514B2 (FLX Bio, Inc., priority 2017, dated 2020).
Counter-ions that a name gives are not always drawn. Like-named read-outs stand apart in the source and are kept apart here.

Target: T1, recombinant full-length USP7 (Homo sapiens, UniProt Q93009)
T1 construct: A 25 μl reaction volume containing recombinant full-length USP7 (62 pM)
Experiment: USP7-mediated ubiquitin-rhodamine cleavage assay
Format: biochemical
Settings: recombinant full-length USP7 62 pM, ubiquitin-rhodamine 100 nM, 1 hour reaction at room temperature
In short: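 USP7 (62 pM) in 20 mM HEPES pH 7.3, 150 mM NaCl, 1 mM TCEP, 125 μg/ml BSA was preincubated with compound (1% DMSO) for 30 min at room temperature. Ubiquitin-rhodamine (100 nM final) was then added for 1 hour, the reaction stopped with acetic acid, and fluorescence read; IC50 from 4-parameter fit.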

[1] = 30-minute pre-incubation, read-out: Potency (USP7 IC50)
[2] = 30-minute incubation with compound, read-out: Potency: USP7 IC50

T1 sequence (Q93009 whole entry): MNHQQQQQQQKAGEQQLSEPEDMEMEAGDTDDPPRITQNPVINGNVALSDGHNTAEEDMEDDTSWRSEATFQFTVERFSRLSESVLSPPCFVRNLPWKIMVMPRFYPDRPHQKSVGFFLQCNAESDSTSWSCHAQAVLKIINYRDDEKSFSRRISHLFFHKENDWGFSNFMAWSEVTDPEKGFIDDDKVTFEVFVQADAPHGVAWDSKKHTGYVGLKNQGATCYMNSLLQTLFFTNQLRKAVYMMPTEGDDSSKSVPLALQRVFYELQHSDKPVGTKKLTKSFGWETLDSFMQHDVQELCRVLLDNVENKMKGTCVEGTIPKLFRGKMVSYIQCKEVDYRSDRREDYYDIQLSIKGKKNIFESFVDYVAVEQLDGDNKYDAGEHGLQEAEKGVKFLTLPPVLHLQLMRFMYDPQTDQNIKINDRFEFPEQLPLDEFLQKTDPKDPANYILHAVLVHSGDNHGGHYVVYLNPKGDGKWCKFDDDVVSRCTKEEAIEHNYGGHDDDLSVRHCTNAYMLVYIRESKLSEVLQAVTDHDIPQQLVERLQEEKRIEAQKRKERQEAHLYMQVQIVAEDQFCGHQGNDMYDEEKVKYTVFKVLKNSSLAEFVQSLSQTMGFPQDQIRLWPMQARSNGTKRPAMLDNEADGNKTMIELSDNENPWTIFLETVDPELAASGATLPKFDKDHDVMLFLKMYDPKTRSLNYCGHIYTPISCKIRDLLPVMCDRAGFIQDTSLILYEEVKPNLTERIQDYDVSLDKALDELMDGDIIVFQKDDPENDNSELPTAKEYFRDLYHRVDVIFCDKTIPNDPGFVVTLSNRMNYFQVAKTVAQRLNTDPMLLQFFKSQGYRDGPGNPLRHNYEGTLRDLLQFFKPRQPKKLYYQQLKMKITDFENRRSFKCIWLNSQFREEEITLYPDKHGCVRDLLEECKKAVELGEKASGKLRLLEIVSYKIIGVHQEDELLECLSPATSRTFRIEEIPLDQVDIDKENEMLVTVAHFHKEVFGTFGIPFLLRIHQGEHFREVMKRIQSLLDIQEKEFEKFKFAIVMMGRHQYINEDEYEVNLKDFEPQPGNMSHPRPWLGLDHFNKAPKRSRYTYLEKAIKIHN

Structure (SMILES) | IC50 [1] | IC50 [2] | other results
Cc1cc(Cl)cc(-c2ccnc3cc(Cn4c(=O)ccn(C)c4=O)sc23)c1O[C@@H]1CC[C@@](C)(N)C1 [Example 518, 3-[[7-[2-[(1R,3R)-3-amino-3-methyl-cyclopentoxy]-5-chloro-3-methyl-phenyl]thieno[3,2-b]pyridin-2-yl]methyl]-1-methyl-pyrimidine-2,4-dione; 2,2,2-trifluoroacetic acid] | < 1000 nM | – | –
Cc1cc(Cl)cc(-c2ccnc3cc(Cn4c(=O)ccn(CC(F)(F)F)c4=O)sc23)c1OC1CC(N2CCOC[C@H]2C)C1 (stereo partly drawn) [Example 657, 3-[[7-[5-chloro-3-methyl-2-[3-[(3R)-3-methylmorpholin-4-yl]cyclobutoxy]phenyl]thieno[3,2-b]pyridin-2-yl]methyl]-1-(2,2,2-trifluoroethyl)pyrimidine-2,4-dione; 2,2,2-trifluoroacetic acid] | < 1000 nM | – | –
CN[C@H]1CC[C@H](Oc2c(C)cc(Cl)cc2-c2ccnc3cc(CN4C(=O)CCC4=O)sc23)CC1 [Example 213, 1-((7-(5-Chloro-3-methyl-2-(((1r,4r)-4-(methylamino)cyclohexyl)oxy)phenyl)thieno[3,2-b]pyridin-2-yl)methyl)pyrrolidine-2,5-dione] | – | < 1000 nM | –
Cc1cc(Cl)cc(-c2ccnc3cc(CN4C(=O)C5C(C4=O)C5(C)C)sc23)c1OC1CN2CCC1CC2 (stereo not drawn) [Example 316, 3-[[7-(5-chloro-3-methyl-2-quinuclidin-3-yloxy-phenyl)thieno[3,2-b]pyridin-2-yl]methyl]-6,6-dimethyl-3-azabicyclo[3.1.0]hexane-2,4-dione; 2,2,2-trifluoroacetic acid] | – | < 1000 nM | –
Cc1cc(Cl)cc(-c2ccnc3cc(Cn4c(=O)ccn(C)c4=O)sc23)c1O[C@@H]1CN[C@H](C(=O)O)C1 [Example 486, (2S,4S)-4-[4-chloro-2-methyl-6-[2-[(3-methyl-2,6-dioxo-pyrimidin-1-yl)methyl]thieno[3,2-b]pyridin-7-yl]phenoxy]pyrrolidine-2-carboxylic acid] | < 1000 nM | – | –
Cc1cc(Cl)cc(-c2ccnc3cc(Cn4c(=O)ccn(C)c4=O)sc23)c1OCC1CNC1 [Example 487, 3-[[7-[2-(azetidin-3-ylmethoxy)-5-chloro-3-methyl-phenyl]thieno[3,2-b]pyridin-2-yl]methyl]-1-methyl-pyrimidine-2,4-dione] | < 1000 nM | – | –
Cc1cc(Cl)cc(-c2ccnc3cc(Cn4c(=O)ccn(CC(F)(F)F)c4=O)sc23)c1OC1CCC(F)(F)CC1 [Example 682, 3-[[7-[5-chloro-2-(4,4-difluorocycllohexoxy)-3-methyl-phenyl]thieno[3,2-b]pyridin-2-yl]methyl]-1-(2,2,2-trifluoroethyl)pyrimidine-2,4-dione] | – | – | IC50 (30-minute incubation, read-out: Potency (USP7 IC50)): < 1000 nM
O=C1CCC(=O)N1Cc1cc2nccc(-c3cc(Cl)cc(Br)c3O[C@@H]3CNC[C@@H]3F)c2s1 [Example 102, 1-((7-(3-Bromo-5-chloro-2-(((3R,4S)-4-fluoropyrrolidin-3-yl)oxy)phenyl)thieno[3,2-b]pyridin-2-yl)methyl)pyrrolidine-2,5-dione] | – | < 1000 nM | –
Cc1cc(Cl)cc(-c2ncnc3cc(CN4C(=O)C5CC5C4=O)sc23)c1O[C@@H]1CNC[C@@H]1F (stereo partly drawn) [Example 351, 3-[[4-[5-chloro-2-[(3R,4S)-4-fluoropyrrolidin-3-yl]oxy-3-methyl-phenyl]thieno[3,2-d]pyrimidin-6-yl]methyl]-3-azabicyclo[3.1.0]hexane-2,4-dione dihydrochloride] | – | < 1000 nM | –
Cc1cc(Cl)cc(-c2ccnc3cc(CN4C(=O)C5C(C4=O)C5(C)C)sc23)c1OC1CNCC(C)(C)C1 [Example 362, 3-[[7-[5-chloro-2-[[(3S)-5,5-dimethyl-3-piperidyl]oxy]-3-methyl-phenyl]thieno[3,2-b]pyridin-2-yl]methyl-6,6-dimethyl-3-azabicyclo[3.1.0]hexane-2,4-dione] | – | < 1000 nM | –
Cc1cc(Cl)cc(-c2ncnc3cc(CN4C(=O)COC4=O)sc23)c1O[C@@H]1CNC[C@@H]1F [Example 128, 3-((4-(5-Chloro-2-(((3R,4S)-4-fluoropyrrolidin-3-yl)oxy)-3-methylphenyl)thieno[3,2-d]pyrimidin-6-yl)methyl)oxazolidine-2,4-dione] | – | < 1000 nM | –
Cc1cc(Cl)cc(-c2ccnc3cc(Cn4c(=O)ccn(C(C)C)c4=O)sc23)c1O[C@H]1CCCNC1 [Example 447, 3-[[7-[5-chloro-3-methyl-2-[[(3S)-3-piperidyl]oxy]phenyl]thieno[3,2-b]pyridin-2-yl]methyl]-1-isopropyl-pyrimidine-2,4-dione] | < 1000 nM | – | –
Cc1cc(Cl)cc(-c2ncnc3cc(Cn4c(=O)ccn(C)c4=O)sc23)c1OC1CCNCC1 [Example 232, 3-((4-(5-Chloro-3-methyl-2-(piperidin-4-yloxy)phenyl)thieno[3,2-d]pyrimidin-6-yl)methyl)-1-methylpyrimidine-2,4(1H,3H)-dione] | – | < 1000 nM | –
OCc1cc2nccc(-c3cc(Cl)cc(Br)c3O[C@H]3CCCNC3)c2s1 [Example 166, (S)-(7-(3-Bromo-5-chloro-2-(piperidin-3-yloxy)phenyl)thieno[3,2-b]pyridin-2-yl)methanol] | – | 1000 to 10000 nM | –
Cc1cc(Cl)cc(-c2ccnc3cc(CN4C(=O)CCC4=O)sc23)c1OC1CNCC1(C)C (stereo not drawn) [Example 345, 1-[[7-[5-chloro-2-(4,4-dimethylpyrrolidin-3-yl)oxy-3-methyl-phenyl]thieno[3,2-b]pyridin-2-yl]methyl]pyrrolidine-2,5-dione] | – | < 1000 nM | –
COCCN1CC[C@@H](Oc2c(C)cc(Cl)cc2-c2ccnc3cc(Cn4c(=O)ccn(CC(F)(F)F)c4=O)sc23)[C@H](C)C1 [Example 654, 3-[[7-[5-chloro-2-[[(3R,4R)-1-(2-methoxyethyl)-3-methyl-4-piperidyl]oxy]-3-methyl-phenyl]thieno[3,2-b]pyridin-2-yl]methyl]-1-(2,2,2-trifluoroethyl)pyrimidine-2,4-dione] | < 1000 nM | – | –
Cc1cc(Cl)cc(-c2ccnc3cc(CN4C(=O)CN(C)C4=O)sc23)c1O[C@@H]1CNC[C@@H]1F [Example 144, 3-((7-(5-Chloro-2-(((3R,4S)-4-fluoropyrrolidin-3-yl)oxy)-3-methylphenyl)thieno[3,2-b]pyridin-2-yl)methyl)-1-methylimidazolidine-2,4-dione] | – | 1000 to 10000 nM | –
Cc1cc(Cl)cc(-c2ccnc3cc(CO)sc23)c1OC1C[C@@H]2C[C@H](C1)N2 (stereo partly drawn) [Example 190, (7-(2-(((1R,5S)-6-Azabicyclo[3.1.1]heptan-3-yl)oxy)-5-chloro-3-methylphenyl)thieno[3,2-b]pyridin-2-yl)methanol] | – | 10000 to 30000 nM | –
Cc1cc(C(F)(F)F)cc(-c2ccnc3cc(Cn4c(=O)ccn(C)c4=O)sc23)c1O[C@H]1CCCNC1 [Example 445] | < 1000 nM | – | –
Cc1cc(Cl)cc(-c2ccnc3cc(Cn4c(=O)ccn(C)c4=O)sc23)c1O[C@@H]1CCN[C@@H](C)C1 [Example 495, 3-[[7-[5-chloro-3-methyl-2-[[(2S,4R)-2-methyl-4-piperidyl]oxy]phenyl]thieno[3,2-b]pyridin-2-yl]methyl]-1-methyl-pyrimidine-2,4-dione] | < 1000 nM | – | –
CCN1CC[C@H](Oc2c(C)cc(Cl)cc2-c2ccnc3cc(Cn4c(=O)ccn(C)c4=O)sc23)[C@@H](F)C1 [Example 482, 3-[[7-[5-chloro-2-[[(3S,4S)-1-ethyl-3-fluoro-4-piperidyl]oxy]-3-methyl-phenyl]thieno[3,2-b]pyridin-2-yl]methyl]-1-methyl-pyrimidine-2,4-dione; 2,2,2-trifluoroacetic acid] | < 1000 nM | – | –
Cc1cc(Cl)cc(-c2ncnc3cc(Cn4c(C(F)(F)F)cccc4=O)sc23)c1O[C@@H]1CNC[C@@H]1F [Example 148, 1-((4-(5-Chloro-2-(((3R,4S)-4-fluoropyrrolidin-3-yl)oxy)-3-methylphenyl)thieno[3,2-d]pyrimidin-6-yl)methyl)-6-(trifluoromethyl)pyridin-2(1H)-one] | – | 10000 to 30000 nM | –
Cc1cc(Cl)cc(-c2ccnc3cc(CN4C(=O)CCC4=O)sc23)c1OC1CCN(CC(F)(F)F)CC1 [Example 194, 1-((7-(5-Chloro-3-methyl-2-((1-(2,2,2-trifluoroethyl)piperidin-4-yl)oxy)phenyl)thieno[3,2-b]pyridin-2-yl)methyl)pyrrolidine-2,5-dione] | – | 1000 to 10000 nM | –
Cc1cc(Cl)cc(-c2ncnc3cc(CN4C(=O)CCCC4=O)sc23)c1O[C@@H]1CNC[C@@H]1F [Example 134, 1-((4-(5-Chloro-2-(((3R,4S)-4-fluoropyrrolidin-3-yl)oxy)-3-methylphenyl)thieno[3,2-d]pyrimidin-6-yl)methyl)piperidine-2,6-dione] | – | < 1000 nM | –
CCN1CCCC(Oc2c(C)cc(Cl)cc2-c2ccnc3cc(Cn4c(=O)ccn(C)c4=O)sc23)C1 (stereo not drawn) [Example 504, 3-[[7-[5-chloro-2-[(1-ethyl-3-piperidyl)oxy]-3-methyl-phenyl]thieno[3,2-b]pyridin-2-yl]methyl]-1-methyl-pyrimidine-2,4-dione] | < 1000 nM | – | –
Cc1cc(Cl)cc(-c2ccnc3cc(CN4C(=O)CCC4=O)sc23)c1O[C@H]1CC[C@H](N2CCC2)C1 [Example 157, 1-((7-(2-(((1S,3S)-3-(Azetidin-1-yl)cyclopentyl)oxy)-5-chloro-3-methylphenyl)thieno[3,2-b]pyridin-2-yl)methyl)pyrrolidine-2,5-dione] | – | < 1000 nM | –
CCN1CC[C@@H](Oc2c(C)cc(Cl)cc2-c2ccnc3cc(CN4C(=O)C5CC5C4=O)sc23)[C@@H](C)C1 (stereo partly drawn) [Example 325, 3-[[7-[5-chloro-2-[[(3S,4R)-1-ethyl-3-methyl-4-piperidyl]oxy]-3-methyl-phenyl]thieno[3,2-b]pyridin-2-yl]methyl]-3-azabicyclo[3.1.0]hexane-2,4-dione] | – | < 1000 nM | –
